According to ChEMBL document CHEMBL5316300, “Discovery of TP0597850: A Selective, Chemically Stable, and Slow Tight-Binding Matrix Metalloproteinase-2 Inhibitor with a Phenylbenzamide-Pentapeptide Hybrid Scaffold” (J Med Chem, 2023):
Square brackets hold non-standard residues; d marks the D form. Peptide text beside a SMILES is read from it. * marks the point of attachment. Benzoyl(4-OPh(4-CONH2)) = NC(=O)c1ccc(Oc2ccc(C(=O)*)cc2)cc1; NMeI = CC[C@H](C)[C@H](NC)C(=O)O; NMeE = CN[C@@H](CCC(=O)O)C(=O)O; β3hP = O=C(O)C[C@@H]1CCCN1; Dab = NCC[C@H](N)C(=O)O; Ava = NCCCCC(=O)O

Key:
[1] = molecular target: T1, 72 kDa type IV collagenase (Homo sapiens, UniProt P08253); test: Inhibition of MMP2 (unknown origin)
T1 sequence (P08253 whole entry): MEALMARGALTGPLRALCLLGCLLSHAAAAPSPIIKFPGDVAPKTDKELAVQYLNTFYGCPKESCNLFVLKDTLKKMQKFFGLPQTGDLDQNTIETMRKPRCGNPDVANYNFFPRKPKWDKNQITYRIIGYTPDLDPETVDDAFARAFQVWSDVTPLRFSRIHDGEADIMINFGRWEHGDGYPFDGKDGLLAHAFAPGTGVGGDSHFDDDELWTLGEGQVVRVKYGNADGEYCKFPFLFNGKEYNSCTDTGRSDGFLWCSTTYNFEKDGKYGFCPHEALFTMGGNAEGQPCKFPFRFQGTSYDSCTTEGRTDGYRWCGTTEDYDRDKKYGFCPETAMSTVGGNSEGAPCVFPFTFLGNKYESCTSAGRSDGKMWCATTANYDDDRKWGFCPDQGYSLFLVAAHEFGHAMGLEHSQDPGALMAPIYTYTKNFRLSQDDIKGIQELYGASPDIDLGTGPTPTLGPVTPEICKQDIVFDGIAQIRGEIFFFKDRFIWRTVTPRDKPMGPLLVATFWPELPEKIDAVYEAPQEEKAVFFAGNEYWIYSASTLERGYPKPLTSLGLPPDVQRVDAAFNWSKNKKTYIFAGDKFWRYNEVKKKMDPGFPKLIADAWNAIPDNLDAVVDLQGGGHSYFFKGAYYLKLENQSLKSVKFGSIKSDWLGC

Homo sapiens = species: Homo sapiens; test: Selectivity ratio of IC50 for recombinant human MMP12 to IC50 for recombinant human MMP2
[2] = molecular target: MMP-2/MMP-13 (Homo sapiens) (UniProt P08253+P45452); test: Selectivity ratio of IC50 for recombinant human MMP13 to IC50 for recombinant human MMP2; type: protein assay
Chain of MMP-2/MMP-13 (Homo sapiens) (P08253 whole entry, looked up, other chains not shown): as the sequence (P08253 whole entry) above

[3] = molecular target: Macrophage metalloelastase (Homo sapiens, UniProt P39900); test: Inhibition of human recombinant MMP12 using MOCAc-Lys-Pro-Leu-Gly-Leu-A2pr(Dnp)-Ala-Arg-N2 as substrate preincubated for 10 to 15 mins followed by substrate addition and measured after 60 to 120 mins by fluorescence based assay
Chain of Macrophage metalloelastase (P39900 whole entry): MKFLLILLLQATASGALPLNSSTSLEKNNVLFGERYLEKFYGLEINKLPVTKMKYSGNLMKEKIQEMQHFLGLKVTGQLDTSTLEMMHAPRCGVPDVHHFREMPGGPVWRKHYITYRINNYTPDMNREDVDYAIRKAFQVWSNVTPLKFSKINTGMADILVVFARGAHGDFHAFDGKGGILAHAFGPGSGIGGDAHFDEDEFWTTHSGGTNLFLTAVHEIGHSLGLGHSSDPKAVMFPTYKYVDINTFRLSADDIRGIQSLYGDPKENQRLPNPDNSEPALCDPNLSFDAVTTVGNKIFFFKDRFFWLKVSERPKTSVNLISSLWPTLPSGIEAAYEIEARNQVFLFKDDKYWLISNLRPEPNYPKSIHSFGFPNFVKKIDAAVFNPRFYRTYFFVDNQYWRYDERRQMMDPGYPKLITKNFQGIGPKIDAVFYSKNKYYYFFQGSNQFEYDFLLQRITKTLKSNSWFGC

[4] = molecular target: T1, 72 kDa type IV collagenase; test: Inhibition of recombinant human MMP2 using MOCAc-Lys-Pro-Leu-Gly-Leu-A2pr(Dnp)-Ala-Arg-N2 as substrate preincubated for 10 to 15 mins followed by substrate addition and measured after 60 to 120 mins by fluorescence based assay
Collagenase 3 = Collagenase 3 (Homo sapiens, UniProt P45452); test: Inhibition of human recombinant MMP13 using MOCAc-Lys-Pro-Leu-Gly-Leu-A2pr(Dnp)-Ala-Arg-N2 as substrate preincubated for 10 to 15 mins followed by substrate addition and measured after 60 to 120 mins by fluorescence based assay
[5] = Chemical stability of the compound in phosphate buffer at pH 7.4 assessed as residual rate incubated for 2 weeks by HPLC analysis; type: physicochemical; conditions: read-out: Stability
[6] = Chemical stability of the compound in phosphate buffer at pH 9 assessed as residual rate incubated for 2 weeks by HPLC analysis; type: physicochemical; conditions: read-out: Stability
[7] = Chemical stability of the compound in phosphate buffer at pH 4 assessed as residual rate incubated for 2 weeks by HPLC analysis; type: physicochemical; conditions: read-out: Stability

Compound	IC50 [1]	Ratio IC50 (Homo sapiens)	Ratio IC50 [2]	IC50 ([3]; read-out: IC50)	IC50 [4]	IC50 (Collagenase 3)	remaining at 336 h [5]	remaining at 336 h [6]	remaining at 336 h [7]	IC50 [3]	Ki [4]
CC[C@H](C)[C@@H](C(=O)N1CCC[C@H]1CC(N)=O)N(C)C(=O)[C@H](CC(C)C)NC(=O)[C@H](CCN)NC(=O)[C@H](CC(=O)O)NC(=O)[C@H](CCC(=O)O)NC(=O)CCCCNC(=O)c1ccc(Oc2ccc(C(N)=O)cc2)cc1 ({Benzoyl(4-OPh(4-CONH2))-Ava}-ED[Dab]L[NMeI][β3hP]-NH2)	0.18 nM										
CC[C@H](C)[C@@H](C(=O)N1CCC[C@H]1CC(N)=O)N(C)C(=O)[C@H](CC(C)C)NC(=O)[C@H](CCN)NC(=O)CC[C@@H](NS(=O)(=O)c1ccc(NC(=O)c2ccccc2)cc1)C(=O)O		1300	850	990 nM	0.74 nM	630 nM					
CC[C@H](C)[C@@H](C(=O)NCCCCCC(N)=O)N(C)C(=O)[C@H](CC(C)C)NC(=O)[C@H](CCN)NC(=O)CC[C@@H](NS(=O)(=O)c1ccc(NC(=O)c2ccc(Cl)cc2)cc1)C(=O)O		2600	2800	260 nM	0.1 nM	280 nM					
CC[C@H](C)[C@@H](C(=O)NCCCCC(N)=O)N(C)C(=O)[C@H](CC(C)C)NC(=O)[C@H](CCN)NC(=O)CC[C@@H](NS(=O)(=O)c1ccc(NC(=O)c2ccc(C(N)=O)cc2)cc1)C(=O)O		1900	3100	410 nM	0.22 nM	690 nM	88.8%	47.6%	98.3%		
CC[C@H](C)[C@@H](C(=O)N1CCC[C@H]1CC(N)=O)N(C)C(=O)[C@H](CC(C)C)NC(=O)[C@H](CCN)NC(=O)CC[C@@H](NS(=O)(=O)c1ccc(NC(=O)c2ccc(C(N)=O)cc2)cc1)C(=O)O		950	670	400 nM	0.42 nM	280 nM					
CC[C@H](C)[C@@H](C(=O)N1CCC[C@H]1CC(N)=O)N(C)C(=O)[C@H](CC(C)C)NC(=O)[C@H](CCN)NC(=O)CC[C@@H](NS(=O)(=O)c1ccc(NC(=O)c2ccc(Cl)cc2)cc1)C(=O)O		470	370	200 nM	0.43 nM	160 nM					
CC[C@H](C)[C@@H](C(=O)NCCCCC(N)=O)N(C)C(=O)[C@H](CC(C)C)NC(=O)[C@H](CCN)NC(=O)CC[C@@H](NS(=O)(=O)c1ccc(NC(=O)c2ccc(Cl)cc2)cc1)C(=O)O		1600	2800	180 nM	0.11 nM	310 nM					
CC[C@H](C)[C@@H](C(=O)NCCCCC(N)=O)N(C)C(=O)[C@H](CC(C)C)NC(=O)[C@@H]1CNCCN1C(=O)CC[C@@H](NS(=O)(=O)c1ccc(NC(=O)c2ccc(Cl)cc2)cc1)C(=O)O		120	550	78 nM	0.67 nM	370 nM					
CC[C@H](C)[C@@H](C(=O)NCCCC(N)=O)N(C)C(=O)[C@H](CC(C)C)NC(=O)[C@H](CCN)NC(=O)CC[C@@H](NS(=O)(=O)c1ccc(NC(=O)c2ccc(Cl)cc2)cc1)C(=O)O		1400	1800	230 nM	0.16 nM	280 nM					
CC[C@H](C)[C@@H](C(=O)N1CCC[C@H]1CC(N)=O)N(C)C(=O)[C@H](CC(C)C)NC(=O)[C@H](CCN)NC(=O)CC[C@@H](NS(=O)(=O)c1ccc(Oc2ccccc2)cc1)C(=O)O					> 10 nM					Not Active	
CC[C@H](C)[C@@H](C(=O)N1CCC[C@H]1CC(N)=O)N(C)C(=O)[C@H](CC(C)C)NC(=O)[C@H](CCN)NC(=O)CC[C@@H](NS(=O)(=O)c1ccc(-c2ccccc2)cc1)C(=O)O		39	37	240 nM	6.2 nM	230 nM					
H-ISYGNDALMP-OH											21 nM
CC(C)C[C@H](NC(=O)[C@H](CCN)NC(=O)[C@H](CC(=O)O)NC(=O)[C@H](CCC(=O)O)NC(=O)CCCCNC(=O)c1ccc(Oc2ccc(C(N)=O)cc2)cc1)C(=O)N(C)[C@@H](CCC(=O)O)C(=O)N1CCC[C@H]1CC(N)=O ({Benzoyl(4-OPh(4-CONH2))-Ava}-ED[Dab]L[NMeE][β3hP]-NH2)							89%	87.7%	69.5%		
CC[C@H](C)[C@@H](C(=O)NCCC(N)=O)N(C)C(=O)[C@H](CC(C)C)NC(=O)[C@H](CCN)NC(=O)CC[C@@H](NS(=O)(=O)c1ccc(NC(=O)c2ccc(Cl)cc2)cc1)C(=O)O		1200	1400	240 nM	0.2 nM	280 nM					
CC[C@H](C)[C@@H](C(=O)NCCCCC(N)=O)N(C)C(=O)[C@H](CC(C)C)NC(=O)[C@@H]1C[C@H](N)CN1C(=O)CC[C@@H](NS(=O)(=O)c1ccc(NC(=O)c2ccc(C(N)=O)cc2)cc1)C(=O)O		550	860								
CC(C)C[C@H](NC(=O)[C@@H]1CCCN1C(=O)CC[C@@H](NS(=O)(=O)c1ccc(NC(=O)c2ccc(C(N)=O)cc2)cc1)C(=O)O)C(=O)N(C)[C@@H](CCC(=O)O)C(=O)NCCCCC(N)=O		170	160	52 nM	0.31 nM	50 nM					
